Patent US5795899A, “Soluble salts of 4-amino-2-(4,4-dimethylimidazolidin-2-on-1-yl) pyrimidine-5-carboxylic acid N-methyl-N-(3-trifluoromethylphenyl)-amide, a process for the preparation thereof, the use thereof as pharmaceuticals and starting materials” (Hoechst Aktiengesellschaft, priority 1992, dated 1998)

Legend:
serum lipoproteins = assay: Effect on serum lipoproteins of normolipemic male rats in a subchronic test; type: in vivo, male Wistar rats, HOE: WISKf (SPF 71) strain; conditions: for % change compared with control, protein LDL / % change compared with control, total cholesterol LDL / % change compared with control, total cholesterol VLDL / % change compared with control, triglycerides VLDL: oral, 7 days
Protocol: 4.1 Effect on serum lipoproteins of normolipemic male rats in a subchronic test
Groups of in each case 10 male rats of the HOE: WISKf (SPF 71) strain with an initial weight above 180 g received once a day (in the morning) the test product or the comparison product in 1% aqueous ®Tylose MH 300 solution by stomach tube (0.5 ml/100 g of body weight); the control group in each case received only the vehicle. The last (7th) administration took place 24 hours before removal of blood and sacrifice. There was free access to food and water during the test. The food was withdrawn 24 hours before the removal of blood.
The serum from all 10 rats in a group was pooled for the analysis of the serum lipoproteins. The serum lipoproteins were separated with a preparative ultracentrifuge (KONTRON TGA 65, Rotor BECKMAN 50.4 Ti).
The following conditions specified by Koga, S., Horwitz, D. L., and Scanu, A. M., Journal of Lipid Research 10, 577 (1969) and Havel, R. J., Eder, H. A., and Bragdon, H. H., J. Clin. Invest. 34, 1345 (1955) were used to separate VLDL, LDL and HDL:
Test kits from BOEHRINGER/Mannheim were used for the enzymatic determination of cholesterol and triglycerides in the separated lipoprotein fractions (compare Siedel, J., Schlumberger, H., Klose, S., Ziegenhorn, J. and Wahlefeld, A. W., J. Clin. Chem. Clin. Biochem. 19, 838 (1981) and Wahlefeld, A. W., in: H. O. Bergmeier: Methoden der enzymatischen Analyse (Methods of Enzymatic Analysis), 2nd edition, Volume II, Verlag Chemie 1974, page 1878). The proteins were determined by the method of Lowry (Lowry, O. H., Roseborough, N. J., Farr, A. L. and R. J. Randell, J. Biol. Chem. 193, 265 (1951)).
Clofibrate was used as comparison product.

hypercholesterolemia = assay: Effect on experimental hypercholesterolemia in male rats; type: in vivo, male Wistar rats, HOE: WISKf (SPF 71) strain; conditions: oral, 7 days; for Total cholesterol (x): mean x
Protocol: Groups of in each case 10 male rats of the HOE: WISKf (SPF 71) strain with a weight of about 200 g received each day in the morning a cocktail which contained the substances required to generate a combined dietetic/hormonal hypercholesterolemia, and in each case the product to be tested for the inhibition of hypercholesterolemia, in appropriate dosage. The cocktail was composed of a mixture of 100 g of cholesterol, 30 g of propylthiouracil and 100 g of cholic acid in 1 l of peanut oil. 1 ml of this/100 g of body weight was administered by gavage. The products to be tested were suspended in this cocktail in a concentration such that it contained the daily dose indicated in Table 4 on administration of the amount mentioned above. The other procedure for the treatment and the analysis of the individual parameters were carried out as indicated under 4.1.
Clofibrate was used as comparison product. The results are compiled in Table 4, wherein a) indicates the absolute values and b) indicates the percentage changes.

[1] = tested on: carbohydrate-induced hypertriglyceridemia; assay: Inhibition of carbohydrate-induced hypertriglyceridemia; type: in vivo, male Sprague-Dawley rats; conditions: oral, 4 days; for Triglycerides in serum (x): mean x
Protocol: Groups of in each case 10 male Sprague-Dawley rats (supplied by the breeder Mollegard with a weight of 250-280 g) received on each of 4 consecutive days one administration of the compound dissolved in PEG 400 by gavage. In addition, after the 3rd administration and 8 and 24 hours later they received 2.5 g of fructose/kg, likewise by gavage. Moreover, after the 3rd administration of product, 50% strength fructose solution was offered to them as drinking water ad libitum, and the food was withdrawn. Retroorbital removal of blood, from which the serum was obtained for the triglyceride determination and VLDL preparation in the ultracentrifuge (flotation at d=1.006), took place 3 hours after the last product/fructose administration. The food received by the animals from 1 week before the 1st administration and up to the 3rd administration was a diet with 40% casein in the feed meal.
The animals develop, as a result of this treatment, a hypertriglyceridemia which approximately corresponds to Fredrickson phenotype IV in humans. The serum triglycerides of the normal animals increased from 0.54 to 1.1 mmol/l, and the VLDL triglycerides from 0.67 to 1.81.

[2] = Side effects like those observed with the statins; conditions: general statement
[3] = tested on: tumor cells (L 1210, A 549, HT 29); assay: Cell proliferation inhibition (MTT assay), overall statement; type: cell-based, mouse and human
Protocol: The reduced inhibitory effect on cell proliferation was tested on exponentially growing animal (mouse leukemia cells, L 1210) and human (bronchial carcinoma cells, A 549; colon carcinoma cells, HT 29) tumor cells. This entailed the tumor cells being incubated in RPMI standard medium with various concentrations of the test substances for 72 hours. Cell incubations only in fresh medium served as control. Incubations were set up in quadruplet. […] After incubation for a further 7 to 24 hours, the cell supernatant was carefully removed and the formazan dye in the cells was solubilized by adding DMSO and measured quantitatively by photometry at 492 nm. The ratio of the extinction of the substance incubations to the control incubation was quantified. The coefficient of variation in each incubation series was less than 15%. The following Table 6 indicates the IC50 values (IC50 [μg/ml] is the concentration of the test substance per ml which is necessary for 50% inhibition) from these investigations.

physchem = conditions: water

Compound: CN(C(=O)c1cnc(N2CC(C)(C)NC2=O)nc1N)c1cccc(C(F)(F)F)c1 [Compound I, 4-amino-2-(4,4-dimethylimidazolidin-2-on-1-yl)pyrimidine-5-carboxylic acid N-methyl-N-(3-trifluoromethylphenyl)amide]
- % change compared with control, protein LDL (serum lipoproteins; 1 mg/kg/day): -15%
- % change compared with control, total cholesterol LDL (serum lipoproteins; 1 mg/kg/day): -17%
- % change compared with control, total cholesterol VLDL (serum lipoproteins; 1 mg/kg/day): +4%
- % change compared with control, triglycerides VLDL (serum lipoproteins; 1 mg/kg/day): +8%
- % change compared with control, protein LDL (serum lipoproteins; 3 mg/kg/day): -25%
- % change compared with control, total cholesterol LDL (serum lipoproteins; 3 mg/kg/day): -32%
- % change compared with control, total cholesterol VLDL (serum lipoproteins; 3 mg/kg/day): -24%
- % change compared with control, triglycerides VLDL (serum lipoproteins; 3 mg/kg/day): -25%
- % change compared with control, protein LDL (serum lipoproteins; 10 mg/kg/day): -41%
- % change compared with control, total cholesterol LDL (serum lipoproteins; 10 mg/kg/day): -49%
- % change compared with control, total cholesterol VLDL (serum lipoproteins; 10 mg/kg/day): -52%
- % change compared with control, triglycerides VLDL (serum lipoproteins; 10 mg/kg/day): -62%
- % change compared with control, protein LDL (serum lipoproteins; 30 mg/kg/day): -52%
- % change compared with control, total cholesterol LDL (serum lipoproteins; 30 mg/kg/day): -64%
- % change compared with control, total cholesterol VLDL (serum lipoproteins; 30 mg/kg/day): -59%
- % change compared with control, triglycerides VLDL (serum lipoproteins; 30 mg/kg/day): -79%
- HDL levels (in words) (serum lipoproteins; general statement): unaffected
- % change compared with control, protein "HDL" d > 1.04 (hypercholesterolemia; 10 mg/kg/day): -7%
- % change compared with control, protein LDL (hypercholesterolemia; 10 mg/kg/day): -16%
- % change compared with control, protein VLDL (hypercholesterolemia; 10 mg/kg/day): -8%
- % change compared with control, total cholesterol "HDL" d > 1.04 (hypercholesterolemia; 10 mg/kg/day): -14%
- % change compared with control, total cholesterol LDL (hypercholesterolemia; 10 mg/kg/day): -13%
- % change compared with control, total cholesterol VLDL (hypercholesterolemia; 10 mg/kg/day): -34%
- % change compared with control, triglycerides VLDL (hypercholesterolemia; 10 mg/kg/day): -54%
- Lipoprotein fraction protein "HDL" (hypercholesterolemia; 10 mg/kg/day): 5004
- Lipoprotein fraction protein LDL (hypercholesterolemia; 10 mg/kg/day): 1040
- Lipoprotein fraction protein VLDL (hypercholesterolemia; 10 mg/kg/day): 1981
- Lipoprotein fraction total cholesterol "HDL" (hypercholesterolemia; 10 mg/kg/day): 508
- Lipoprotein fraction total cholesterol LDL (hypercholesterolemia; 10 mg/kg/day): 4099
- Lipoprotein fraction total cholesterol VLDL (hypercholesterolemia; 10 mg/kg/day): 3088
- Lipoprotein fraction triglycerides VLDL (hypercholesterolemia; 10 mg/kg/day): 677
- Serum % change compared with control at the end of treatment, total cholesterol (hypercholesterolemia; 10 mg/kg/day): -24%
- Serum % change compared with control at the end of treatment, triglycerides (hypercholesterolemia; 10 mg/kg/day): -16%
- Triglycerides, pool (hypercholesterolemia; 10 mg/kg/day): 2.45 mmol/L
- Total cholesterol (x) (hypercholesterolemia; 10 mg/kg/day): 556 mg/dL
- % change compared with control, protein "HDL" d > 1.04 (hypercholesterolemia; 30 mg/kg/day): -24%
- % change compared with control, protein LDL (hypercholesterolemia; 30 mg/kg/day): -68%
- % change compared with control, protein VLDL (hypercholesterolemia; 30 mg/kg/day): -49%
- % change compared with control, total cholesterol "HDL" d > 1.04 (hypercholesterolemia; 30 mg/kg/day): +79%
- % change compared with control, total cholesterol LDL (hypercholesterolemia; 30 mg/kg/day): -92%
- % change compared with control, total cholesterol VLDL (hypercholesterolemia; 30 mg/kg/day): -97%
- % change compared with control, triglycerides VLDL (hypercholesterolemia; 30 mg/kg/day): -71%
- Lipoprotein fraction protein "HDL" (hypercholesterolemia; 30 mg/kg/day): 4090
- Lipoprotein fraction protein LDL (hypercholesterolemia; 30 mg/kg/day): 391
- Lipoprotein fraction protein VLDL (hypercholesterolemia; 30 mg/kg/day): 1105
- Lipoprotein fraction total cholesterol "HDL" (hypercholesterolemia; 30 mg/kg/day): 1056
- Lipoprotein fraction total cholesterol LDL (hypercholesterolemia; 30 mg/kg/day): 369
- Lipoprotein fraction total cholesterol VLDL (hypercholesterolemia; 30 mg/kg/day): 126
- Lipoprotein fraction triglycerides VLDL (hypercholesterolemia; 30 mg/kg/day): 425
- Serum % change compared with control at the end of treatment, total cholesterol (hypercholesterolemia; 30 mg/kg/day): -81%
- Serum % change compared with control at the end of treatment, triglycerides (hypercholesterolemia; 30 mg/kg/day): -62%
- Triglycerides, pool (hypercholesterolemia; 30 mg/kg/day): 1.10 mmol/L
- Total cholesterol (x) (hypercholesterolemia; 30 mg/kg/day): 137 mg/dL
- Triglycerides in serum, % change from fructose control ([1]; 1 mg/kg/day): -36%
- Triglycerides in the VDVL fraction, % change from fructose control ([1]; 1 mg/kg/day): -45%
- Triglycerides in the VDVL fraction, pool n = 10 ([1]; 1 mg/kg/day): 1.00 mmol/L
- Triglycerides in serum (x) ([1]; 1 mg/kg/day): 0.71 mmol/L
- Triglycerides in serum, % change from fructose control ([1]; 3 mg/kg/day): -51%
- Triglycerides in the VDVL fraction, % change from fructose control ([1]; 3 mg/kg/day): -62%
- Triglycerides in the VDVL fraction, pool n = 10 ([1]; 3 mg/kg/day): 0.69 mmol/L
- Triglycerides in serum (x) ([1]; 3 mg/kg/day): 0.54 mmol/L
- Triglycerides in serum, % change from fructose control ([1]; 10 mg/kg/day): -68%
- Triglycerides in the VDVL fraction, % change from fructose control ([1]; 10 mg/kg/day): -80%
- Triglycerides in the VDVL fraction, pool n = 10 ([1]; 10 mg/kg/day): 0.37 mmol/L
- Triglycerides in serum (x) ([1]; 10 mg/kg/day): 0.35 mmol/L
- Triglycerides in serum, % change from fructose control ([1]; 30 mg/kg/day): -74%
- Triglycerides in the VDVL fraction, % change from fructose control ([1]; 30 mg/kg/day): -90%
- Triglycerides in the VDVL fraction, pool n = 10 ([1]; 30 mg/kg/day): 0.19 mmol/L
- Triglycerides in serum (x) ([1]; 30 mg/kg/day): 0.29 mmol/L
- Side effects of the statin type observed to date [2]: Nor have side effects of this type been observed to date
- Proliferation inhibition compared with imanixil (HOE 402) / its hydrochloride (in words) [3]: distinctly reduced proliferation inhibition
- Solubility in water (in words): exceptionally slightly soluble in water
- 1 part by mass dissolves in . . . parts of H2 O (Table 2, Temp. [°C]: hydrochloride 25.0, nitrate 23.5, p-toluenesulfonate 23.2, hydrogen (R,R)-tartrate 24.6, free base 24.8): 1220 parts of H2 O
- solubility (physchem): 800 µg/mL
- solubility (physchem; Solubility in water: molarity, Table 2, free base, 24.8 °C): 2000 µM
